{"source": "paper PMC11333285", "about": "“Inhibition of lysine acetyltransferase KAT6 in ER^+HER2^− metastatic breast cancer: a phase 1 trial” (Nature Medicine, 2024)", "origin": "cited, not measured here", "key": {"mBC with ESR1 mutations": {"tested_on": "mBC with ESR1 mutations", "set-up": "method as in PMID 35584336", "details": "patients with ESR1 mutations"}, "HR+/HER2− mBC [1]": {"tested_on": "HR+/HER2− mBC", "set-up": "method as in PMID 35583555, PMID 35584336", "details": "all comers after first-line CDK4/6 inhibitors and ET"}, "HR+/HER2− mBC [2]": {"tested_on": "HR+/HER2− mBC", "set-up": "method as in PMID 34357781", "details": "HR+/HER2− mBC progressed after aromatase inhibitors"}}, "note": "Like-named read-outs stand apart in the source and are kept apart here."}
{"compound": "CCNCCc1ccc(CN(CC)c2cc(OC)ccc2[C@@H]2CCc3cc(O)ccc3C2)cc1", "note": "[elacestrant]", "values": [{"measurement": "mPFS", "setting": "mBC with ESR1 mutations", "result": 3.8, "unit": "months"}]}
{"compound": "C[C@]12CC[C@@H]3c4ccc(O)cc4C[C@@H](CCCCCCCCC[S+]([O-])CCCC(F)(F)C(F)(F)F)[C@H]3[C@@H]1CC[C@@H]2O", "note": "(stereo partly shown) [fulvestrant]", "values": [{"measurement": "CBR", "setting": "HR+/HER2− mBC [1]", "result": 13.7, "unit": "%"}, {"measurement": "mPFS", "setting": "HR+/HER2− mBC [1]", "result": 2, "unit": "months"}]}
{"compound": "Nc1ccccc1NC(=O)c1ccc(CNC(=O)OCc2cccnc2)cc1", "note": "[entionostat plus ET]", "values": [{"measurement": "mPFS", "setting": "HR+/HER2− mBC [2]", "result": 3.3, "unit": "months"}]}
